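Test compounds were applied to cells in 96-well plates for 48 hours at 5 doses. At the GI50, growth is halved. Definition used: TGI = concentration required for complete inhibition of growth.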
Experiments:
Assay in all cases: NCI tumour cell line growth inhibition, 48 h
[1] = tested on: MOLT-4 leukemia
[2] = tested on: HOP-62 NSCLC
[3] = tested on: A549 NSCLC
[4] = tested on: M14 melanoma
[5] = tested on: CAKI-1 renal
[6] = tested on: DU-145 prostate
[7] = tested on: NCI-H226 lung
[8] = tested on: OVCAR-3 ovarian
[9] = tested on: SF-268 CNS
[10] = tested on: SNB-19 CNS
[11] = tested on: EKVX NSCLC
[12] = tested on: MDA-MB-435
[13] = tested on: HT29 colon
[14] = tested on: OVCAR-5 ovarian
[15] = tested on: BT-549 breast
[16] = tested on: MDA-MB-468 breast
[17] = tested on: SF-539 CNS
[18] = tested on: HCT-116 colon
[19] = tested on: COLO 205 colon
[20] = tested on: NCI-H460 lung
[21] = tested on: HL-60(TB) leukemia
[22] = tested on: A498 renal
[23] = tested on: RPMI-8226 leukemia
[24] = tested on: MCF7 breast
[25] = tested on: SW-620 colon
[26] = tested on: LOX IMVI melanoma
[27] = tested on: SK-MEL-28 melanoma
[28] = tested on: OVCAR-8 ovarian
[29] = tested on: SF-295 CNS
[30] = tested on: UO-31 renal

O=C1NC(=NC23CC4CC(CC(C4)C2)C3)N/C1=C\c1ccc2ncccc2n1
GI50 [1]: 338 nM
TGI [1]: 2020 nM
GI50 [2]: 514 nM
TGI [2]: 4540 nM
GI50 [3]: 398 nM
TGI [3]: 5120 nM
GI50 [4]: 352 nM
TGI [4]: 2930 nM
GI50 [5]: 234 nM
TGI [5]: 1200 nM
GI50 [6]: 462 nM
TGI [6]: 7590 nM
GI50 [7]: 597 nM
TGI [7]: 5970 nM
GI50 [8]: 279 nM
TGI [8]: 1590 nM
GI50 [9]: 608 nM
TGI [9]: 5630 nM
GI50 [10]: 261 nM
TGI [10]: 4210 nM
GI50 [11]: 321 nM
TGI [11]: 2810 nM
GI50 [12]: 537 nM
TGI [12]: 5140 nM
GI50 [13]: 833 nM
TGI [13]: 3680 nM
GI50 [14]: 743 nM
TGI [14]: 5430 nM
GI50 [15]: 163 nM
TGI [15]: 687 nM
GI50 [16]: 201 nM
TGI [16]: 781 nM
GI50 [17]: 128 nM
TGI [17]: 1110 nM
GI50 [18]: 250 nM
TGI [18]: 3720 nM
GI50 [19]: 319 nM
TGI [19]: 2940 nM
GI50 [20]: 510 nM
TGI [20]: 5280 nM
GI50 [21]: 565 nM
TGI [21]: 3670 nM
GI50 [22]: 175 nM
TGI [22]: 902 nM
GI50 [23]: 316 nM
TGI [23]: 1500 nM
GI50 [24]: 367 nM
TGI [24]: 5840 nM
GI50 [25]: 425 nM
TGI [25]: 6420 nM
GI50 [26]: 416 nM
TGI [26]: 4780 nM
GI50 [27]: 453 nM
TGI [27]: 2910 nM
GI50 [28]: 632 nM
TGI [28]: 5730 nM
GI50 [29]: 251 nM
TGI [29]: 4590 nM
GI50 [30]: 233 nM
